{"source": "patent US5495005A", "about": "“Synthesis and pharmacological activity of a series of novel xanthone derivatives” (National Science Council, priority 1993, dated 1996)", "key": {"rabbit platelet": {"system": "rabbit platelet", "experiment": "collagen-induced aggregation of washed rabbit platelets (turbidimetry)", "type": "cell-based", "conditions": "comparison with norathyrol", "method": "It is known that ADP, arachidonic acid, PAF and collagen treatment will lead to the aggregation of rabbit platelet. […] Using 10 μg/ml of collagen as inducer of platelet aggregation, tile replacement of the methoxy or hydroxy group on the C-3 by the 3-propylamino-2-hydroxypropoxyl group increases the inhibitory effect on platelet aggregation. The reaction mechanisms of 1,3,6,7,-tetraoxygenated xanthones and 3,4-dihydroxygenated xanthone inhibit the formation of A2 -thromboxane and the degradation of phosphoinositide, and inhibit the activity of A2 -thromboxane, respectively.\nBased on the method of Teng et. al. (Ouyang, C. Biochem. Biophys. Acta. 1987, 924:375), rabbit platelets were washed with platelet-rich plasma which was adjusted with EDTA for anti-aggregation. Counted by Coulter Counter (model, ZM), the platelets were adjusted to a density of 4.5×10^8 platelets/ml by Tyrode's solution which contains 136.8 mM NaCl, 2.8 mM KCl, 1.0 mM CaCl2 and 11.2 mM glucose, and 0. 35% bovine serum albumin. Platelets were agitated at a speed of 1200 rpm to form a suspension. All xanthone derivatives tested were dissolved in DMSO. The concentration of DMSO was limited to 0.5% to prevent its interference to the aggregation reaction. The aggregation was assayed by O'Brin's turbidometer. To determine the degree of aggregation, the absorbance of platelet suspension was referred as 0% aggregation and that of the platelet […] was used for 100%. Lumiaggregometer (Chromo-Log Co. USA) was used to carry out the aggregation assay."}, "rat's thoracic aorta": {"system": "rat's thoracic aorta", "experiment": "contraction of rat's thoracic aorta induced by calcium/high potassium or norepinephrine"}, "anesthetized rats": {"system": "anesthetized rats", "experiment": "blood pressure and heart beat of anesthetized rats after i.v. injection", "type": "in vivo", "conditions": "for blood pressure of anesthetized rats: anesthetized rat"}, "[1]": {"target": "angiotension I converting enzyme", "sequence (P12821 30-1306)": "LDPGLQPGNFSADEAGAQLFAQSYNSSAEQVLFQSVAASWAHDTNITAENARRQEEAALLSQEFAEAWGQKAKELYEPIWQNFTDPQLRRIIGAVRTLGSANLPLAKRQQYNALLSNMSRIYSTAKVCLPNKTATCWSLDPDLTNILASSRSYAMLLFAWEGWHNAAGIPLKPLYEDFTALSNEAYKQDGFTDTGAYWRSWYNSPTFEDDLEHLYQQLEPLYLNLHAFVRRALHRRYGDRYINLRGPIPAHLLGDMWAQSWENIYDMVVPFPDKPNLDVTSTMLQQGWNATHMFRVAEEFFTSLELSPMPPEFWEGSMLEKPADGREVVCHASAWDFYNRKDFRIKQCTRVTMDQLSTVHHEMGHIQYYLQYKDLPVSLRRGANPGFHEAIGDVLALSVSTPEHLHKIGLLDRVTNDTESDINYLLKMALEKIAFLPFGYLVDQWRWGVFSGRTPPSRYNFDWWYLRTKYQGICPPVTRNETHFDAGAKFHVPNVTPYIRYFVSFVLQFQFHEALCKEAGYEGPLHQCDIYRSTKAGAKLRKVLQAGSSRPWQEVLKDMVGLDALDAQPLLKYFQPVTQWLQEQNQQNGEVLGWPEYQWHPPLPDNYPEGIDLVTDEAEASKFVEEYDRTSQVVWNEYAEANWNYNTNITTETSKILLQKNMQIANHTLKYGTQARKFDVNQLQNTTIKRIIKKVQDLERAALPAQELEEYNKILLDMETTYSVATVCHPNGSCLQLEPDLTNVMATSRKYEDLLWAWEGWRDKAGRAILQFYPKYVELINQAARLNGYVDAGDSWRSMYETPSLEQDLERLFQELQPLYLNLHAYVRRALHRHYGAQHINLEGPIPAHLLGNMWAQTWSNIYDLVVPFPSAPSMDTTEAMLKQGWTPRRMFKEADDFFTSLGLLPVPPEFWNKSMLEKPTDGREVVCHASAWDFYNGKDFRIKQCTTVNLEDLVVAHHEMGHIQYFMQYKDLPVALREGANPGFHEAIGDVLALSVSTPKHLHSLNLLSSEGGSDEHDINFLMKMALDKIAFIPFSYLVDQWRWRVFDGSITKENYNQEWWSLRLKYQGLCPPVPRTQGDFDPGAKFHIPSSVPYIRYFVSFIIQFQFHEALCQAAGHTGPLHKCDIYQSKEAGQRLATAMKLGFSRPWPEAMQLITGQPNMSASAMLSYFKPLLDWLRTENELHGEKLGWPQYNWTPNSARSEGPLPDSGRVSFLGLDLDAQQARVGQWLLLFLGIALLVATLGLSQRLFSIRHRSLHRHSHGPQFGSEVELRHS", "experiment": "inhibition of angiotension I converting enzyme", "type": "biochemical", "conditions": "read-out: IC50 toward angiotension I converting enzyme"}, "[2]": {"system": "atrioventricular conduction", "conditions": "literature report; cited from earlier work"}, "peripheral blood vessels": {"system": "peripheral blood vessels", "conditions": "literature report; cited from earlier work"}, "myocardiac cells": {"system": "myocardiac cells", "conditions": "literature report; cited from earlier work"}, "platelet": {"system": "platelet", "conditions": "literature report; cited from earlier work"}}}
{"molecule": "CC(=O)Oc1cc2oc3ccccc3c(=O)c2cc1OC(C)=O", "note": "[2,3-dihydroxyxanthone diacetate, 2,3-Dihydroxyxanthone diacetate]", "values": [{"measurement": "effect on inhibiting collagen-induced platelet aggregation, compared with norathyrol", "setting": "rabbit platelet", "result": "more significant effect on inhibiting collagen-induced platelet aggregation than norathyrol"}]}
{"molecule": "O=c1c2ccccc2oc2cc(O)c(O)cc12", "note": "[2,3-dihydroxyxanthone, 2,3-Dihydroxyxanthone]", "values": [{"measurement": "inhibition of muscle contraction in rat's thoracic aorta induced by calcium ion at high potassium", "setting": "rat's thoracic aorta; 100 μg/ml, 1.9 mM calcium ion, 80 mM potassium ion", "result": "significantly inhibit"}, {"measurement": "inhibition of phasic or tonic muscle contraction induced by norepinephrine", "setting": "rat's thoracic aorta; 100 μg/ml, 3 mM norepinephrine", "result": "significantly inhibit"}, {"measurement": "blood pressure of anesthetized rats", "setting": "anesthetized rats", "result": "significantly lowered the blood pressure"}]}
{"molecule": "CC(=O)Oc1cc2oc3c(OC(C)=O)c(OC(C)=O)ccc3c(=O)c2cc1OC(C)=O", "note": "[3 '4 '6 '7-Tetrahydroxyxanthone acetate]", "values": [{"measurement": "effect on inhibiting collagen-induced platelet aggregation, compared with norathyrol", "setting": "rabbit platelet", "result": "more significant effect on inhibiting collagen-induced platelet aggregation than norathyrol"}]}
{"molecule": "CCCNCC(O)COc1ccc2c(=O)c3ccccc3oc2c1", "note": "(stereo not drawn) [3 [3-(propylamino)-2-hydroxypropoxy]xanthone]", "values": [{"measurement": "heart beat of the anesthetized rat", "setting": "anesthetized rats", "result": "slow down the heart beat"}, {"measurement": "blood pressure of anesthetized rats", "setting": "anesthetized rats", "result": "significantly reduce the blood pressure"}]}
{"molecule": "O=c1c2cc(O)c(O)cc2oc2c(O)c(O)ccc12", "note": "[3,4,6,7-tetrahydroxyxanthone, 3,4,6,7-Tetrahydroxyxanthone]", "values": [{"measurement": "blood pressure of anesthetized rats", "setting": "anesthetized rats", "result": "reducing the blood pressure"}, {"measurement": "IC50", "setting": "[1]", "result": 35.4, "unit": "µM"}]}
{"molecule": "O=c1c2ccccc2oc2cc(OCC(O)CNC3CCCCC3)ccc12", "note": "(stereo not drawn) [3-[3-(Cyclohexylamino)-2-hydroxypropoxy] xanthone]", "values": [{"measurement": "effect on inhibiting collagen-induced platelet aggregation, compared with norathyrol", "setting": "rabbit platelet", "result": "more significant effect on inhibiting collagen-induced platelet aggregation than norathyrol"}]}
{"molecule": "CC(C)NCC(O)COc1ccc2c(=O)c3ccccc3oc2c1", "note": "(stereo not drawn) [3[3-(Isopropylamino)-2-hydroxypropoxyl)] xanthone]", "values": [{"measurement": "inhibition of contraction of rat's thoracic aorta induced by high potassium", "setting": "rat's thoracic aorta; 10^-4 M, potassium ion 100 mM", "result": "significantly inhibit the contraction"}, {"measurement": "heart beat of the anesthetized rat", "setting": "anesthetized rats", "result": "slow down the heart beat"}, {"measurement": "blood pressure of anesthetized rats", "setting": "anesthetized rats", "result": "significantly reduce the blood pressure"}]}
{"molecule": "O=c1c2cc(O)c(O)cc2oc2cc(O)cc(O)c12", "note": "[norathyriol]", "values": [{"measurement": "atrioventricular conduction of a rabbit", "setting": "[2]", "result": "significantly depress the atrioventricular conduction"}, {"measurement": "relaxation of peripheral blood vessels", "setting": "peripheral blood vessels", "result": "strongly relax the peripheral blood vessels"}, {"measurement": "inhibition of calcium influx in myocardiac cells", "setting": "myocardiac cells", "result": "inhibit the calcium influx"}]}
{"molecule": "CC(=O)Oc1cc(OC(C)=O)c2c(=O)c3cc(OC(C)=O)c(OC(C)=O)cc3oc2c1", "note": "[norathyrol acetate]", "values": [{"measurement": "inhibition on platelet aggregation", "setting": "platelet", "result": "strong inhibition on platelet aggregation"}]}
{"molecule": "tripteroside acetate", "values": [{"measurement": "inhibition on platelet aggregation", "setting": "platelet", "result": "strong inhibition on platelet aggregation"}]}
